The record followed here is US4623662A, “Antiatherosclerotic ureas and thioureas” (American Cyanamid Company, priority 1985, dated 1986).

Assay [1] has as its target T1, fatty acyl CoA: cholesterol acyl transferase (ACAT) (Rattus norvegicus, UniProt O70536).
T1 construct: The supernatant, containing the microsomal fraction, served as the source of the cholesterol-esterifying enzyme; from tissue; host or cells: rat adrenals, supernatant of 1,000 x g centrifugation containing the microsomal fraction
T1 sequence (O70536 1-545): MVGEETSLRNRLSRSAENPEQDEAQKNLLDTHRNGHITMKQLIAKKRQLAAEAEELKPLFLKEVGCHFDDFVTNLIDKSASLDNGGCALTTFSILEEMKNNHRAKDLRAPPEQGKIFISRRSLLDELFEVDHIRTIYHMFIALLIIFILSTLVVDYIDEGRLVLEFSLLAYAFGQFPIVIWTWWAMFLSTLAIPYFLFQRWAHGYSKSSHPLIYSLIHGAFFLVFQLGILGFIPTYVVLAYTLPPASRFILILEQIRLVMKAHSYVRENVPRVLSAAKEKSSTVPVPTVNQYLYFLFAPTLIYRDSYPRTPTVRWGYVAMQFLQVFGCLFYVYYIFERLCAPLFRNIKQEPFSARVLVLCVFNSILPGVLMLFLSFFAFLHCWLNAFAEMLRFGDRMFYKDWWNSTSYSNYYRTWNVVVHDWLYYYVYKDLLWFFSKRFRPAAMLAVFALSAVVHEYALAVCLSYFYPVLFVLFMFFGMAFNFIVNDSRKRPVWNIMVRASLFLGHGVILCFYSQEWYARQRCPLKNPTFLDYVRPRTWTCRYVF
Nature of the assay: Inhibition of fatty acyl CoA:cholesterol acyl transferase (ACAT), rat adrenal enzyme. The assay is classed as biochemical. Conditions: for IC50: several concentrations. Put shortly: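 Enzyme source was the microsomal supernatant of rat adrenal homogenate (0.2M potassium phosphate, pH 7.4) with BSA, preincubated with compound (5.2 μg/ml final for single-point) for 10 min at 37° C. Then [14C]oleoyl CoA added, 10 min at 37° C. TLC-separated cholesteryl ester was counted; percent inhibition versus control, IC50 from several concentrations.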

For assay [2], the system named is cholesterol absorption. Kind of assay: Inhibition of cholesterol absorption in rats fed 1% cholesterol:0.5% cholic acid diet. Conditions: po, 336 h, rat, 2 weeks; for response vs control in vivo at 0.03 %: dose .03% of the diet; for response vs control in vivo at 0.01 %: dose .01% of the diet. The format is in vivo, male Sprague-Dawley rats. A digest of the protocol: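 Male Sprague-Dawley rats (150-170 g) fed 1% cholesterol:0.5% cholic acid diet for 2 weeks with compound at 0.001, 0.003, 0.01 or 0.03% of diet. Serum cholesterol measured enzymatically; liver cholesterol from saponified large-lobe sample after petroleum ether extraction. Liver and serum sterol expressed as percent of untreated controls.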

The mark [3] stands for this setting: read-out: LS (liver sterol), percentage of control values.
Setting [4] is: read-out: SS (serum sterol), percentage of control values.
Setting [5] is: rat adrenal ACAT, final concentration 5.2 μg/ml, read-out: % Inhibition.

Where two headings read alike, the source gives them in different places.

Compound `CCCCCCCN(Cc1ccc(CCCC)cc1)C(=O)Nc1c(Cl)cc(Cl)cc1Cl` [1-(n-Heptyl)-1-(4-n-butylbenzyl)-3-(2,4,6-trichlorophenyl)urea] displayed an inhibition at 5.2 µg/mL in assay [1] of 90%. For the same compound, the results for the response vs control in vivo at 0.03 % in assay [2] (setting [3]) and in assay [2] (setting [4]) were 8% and 28%, respectively.

For `CCCCCCCN(Cc1ccc(CCCC)cc1)C(=O)Nc1ccc(Cl)cc1Cl` [1-(n-Heptyl)-1-(4-n-butylbenzyl)-3-(2,4-dichlorophenyl)urea], the inhibition at 5.2 µg/mL in assay [1] (setting [5]) was 80%. Also, the response vs control in vivo at 0.03 % in assay [2] (setting [3]) worked out at 50%; in assay [2] (setting [4]), 58%.

In the case of `CCCCCCCN(Cc1ccc(CCCC)cc1)C(=O)Nc1ccc(C)cc1C` [1-(n-Heptyl)-1-(4-n-butylbenzyl)-3-(2,4-dimethylphenyl)urea], the inhibition at 5.2 µg/mL in assay [1] (setting [5]) is 94.8%. Moreover, the response vs control in vivo at 0.03 % in assay [2] (setting [3]) amounted to 14%; in assay [2] (setting [4]), 46%.

Regarding `CCCCCCCN(Cc1ccc(CCCC)cc1)C(=O)Nc1ccc(Cl)cc1C` [1-(n-Heptyl)-1-(4-n-butylbenzyl)-3-(2-methyl-4-chlorophenyl)urea], the inhibition at 5.2 µg/mL in assay [1] (setting [5]) was found to be 92.5%. In addition, the response vs control in vivo at 0.03 % in assay [2] (setting [3]) was determined as 16%; in assay [2] (setting [4]), 35%.

For the compound `CCCCCCCN(Cc1ccc(CCCC)cc1)C(=O)Nc1ccccc1C` [1-(n-Heptyl)-1-(4-n-butylbenzyl)-3-(2-methylphenyl)urea], the inhibition at 5.2 µg/mL in assay [1] (setting [5]) worked out at 97.4%. Besides, the values for the response vs control in vivo at 0.03 % in assay [2] (setting [3]) and in assay [2] (setting [4]) were 29% and 35%, respectively.

As to `CCCCCCCN(Cc1ccc(CCCC)cc1)C(=O)Nc1ccc(Cl)cc1C(F)(F)F` [1-(n-Heptyl)-1-(4-n-butylbenzyl)-3-(2-trifluoromethyl-4-chlorophenyl)urea], at 5.2 µg/mL the inhibition in assay [1] was 90%. The response vs control in vivo at 0.03 % in assay [2] (setting [3]) was determined as 47%; in assay [2] (setting [4]), 63%.

As to `CCCCCCCN(Cc1ccc(CCCC)cc1)C(=O)Nc1cccc(C)c1` [1-(n-Heptyl)-1-(4-n-butylbenzyl)-3-(3-methylphenyl)urea], the inhibition at 5.2 µg/mL in assay [1] (setting [5]) is 93.8%. In addition, the figures for the response vs control in vivo at 0.03 % in assay [2] (setting [3]) and in assay [2] (setting [4]) were 42% and 49%, respectively.

As to `CCCCCCCN(Cc1ccc(CCCC)cc1)C(=O)Nc1ccc(C(=O)OCC)cc1` [1-(n-Heptyl)-1-(4-n-butylbenzyl)-3-(4-carboethoxyphenyl)urea], in assay [1] (setting [5]), the inhibition at 5.2 µg/mL worked out at 92.4%. The response vs control in vivo at 0.03 % was 84% in assay [2] (setting [3]) and 88% in assay [2] (setting [4]).

Compound `CCCCCCCN(Cc1ccc(CCCC(=O)OCC)cc1)C(=O)Nc1c(C)cc(Cl)cc1C` [1-(n-Heptyl)-1-[4-(3-carboethoxypropyl)benzyl]-3-(4-chloro-2,6-dimethylphenyl)urea] registered an IC50 in assay [1] (rat adrenal ACAT) of 1080 nM. In addition, the response vs control in vivo at 0.01 % amounted to 65% in assay [2] (setting [3]) and 55% in assay [2] (setting [4]).

In the case of `CCCCCCCN(Cc1ccc(CCCCCl)cc1)C(=O)Nc1c(C)cc(Cl)cc1C` [1-(n-Heptyl)-1-[4-(4-chlorobutyl)benzyl]-3-(4-chloro-2,6-dimethylphenyl)urea], in assay [1] (rat adrenal ACAT), the IC50 came to 110 nM. In addition, the response vs control in vivo at 0.03 % in assay [2] (setting [3]) was determined as 18%; in assay [2] (setting [4]), 19%.

Compound `CCCCCCCN(Cc1ccc(CCCCO)cc1)C(=O)Nc1c(C)cc(Cl)cc1C` [1-(n-Heptyl)-1-[4-(4-hydroxybutyl)benzyl]-3-(4-chloro-2,6-dimethylphenyl)urea] displayed an IC50 in assay [1] (rat adrenal ACAT) of 820 nM. In addition, the response vs control in vivo at 0.01 % in assay [2] (setting [3]) amounted to 26%; in assay [2] (setting [4]), 24%.

In turn, `CCCCCCCN(Cc1ccc(CCC(C)C)cc1)C(=O)Nc1ccc(Cl)cc1C` [1-(n-Heptyl)-1-[4-(4-isopentyl)benzyl]-3-(4-chloro-2-methylphenyl)urea] registered a half-maximal inhibitory concentration (IC50) in assay [1] (rat adrenal ACAT) of 2400 nM. Besides, the response vs control in vivo at 0.01 % in assay [2] (setting [3]) is 17%; in assay [2] (setting [4]), 20%.

In assay [1] (rat adrenal ACAT), `CCCCCCCN(Cc1ccc(CC(C)C)cc1)C(=O)Nc1ccc(Cl)cc1C` [1-(n-Heptyl)-1-[4-(isobutyl)benzyl]-3-(4-chloro-2-methylphenyl)urea] showed a half-inhibitory concentration (IC50) of 1840 nM. The figures for the response vs control in vivo at 0.01 % in assay [2] (setting [3]) and in assay [2] (setting [4]) were 56% and 62%, respectively.

The compound `CCCCCCCN(Cc1ccc(CCC(C)C)cc1)C(=O)Nc1c(C)cc(Cl)cc1C` [1-(n-Heptyl)-1-[4-(isopentyl)benzyl]-3-(4-chloro-2,6-dimethylphenyl)urea] had an IC50 in assay [1] (rat adrenal ACAT) of 130 nM. The response vs control in vivo at 0.01 % in assay [2] (setting [3]) came to 10%; in assay [2] (setting [4]) it was 17%.

Turning to `CCCCCCCN(Cc1ccc(C(C)C)cc1)C(=O)Nc1c(F)cc(F)cc1F` [1-(n-Heptyl)-1-[4-(isopropyl)benzyl]-3-(2,4,6-trifluorophenyl)urea], the IC50 in assay [1] (rat adrenal ACAT) amounted to 350 nM. Moreover, the response vs control in vivo at 0.01 % in assay [2] (setting [3]) stood at 23%; in assay [2] (setting [4]) it was 40%.

In the case of `CCCCCCCN(Cc1ccc(C(C)C)cc1)C(=O)Nc1ccc(F)cc1F` [1-(n-Heptyl)-1-[4-(isopropyl)benzyl]-3-(2,4-difluorophenyl)urea], the IC50 in assay [1] (rat adrenal ACAT) is 1170 nM. For the same compound, the response vs control in vivo at 0.01 % came to 64% in assay [2] (setting [3]) and 77% in assay [2] (setting [4]).

Compound `CCCCCCCN(Cc1ccc(C(C)C)cc1)C(=O)Nc1c(C)cc(Cl)cc1C` [1-(n-Heptyl)-1-[4-(isopropyl)benzyl]-3-(4-chloro-2,6-dimethylphenyl)urea] displayed a half-inhibitory concentration (IC50) in assay [1] (rat adrenal ACAT) of 200 nM. For the same compound, the response vs control in vivo at 0.01 % was found to be 20% in assay [2] (setting [3]) and 35% in assay [2] (setting [4]).

The compound `CCCCCCCN(Cc1ccc(C(C)C)cc1)C(=O)Nc1ccc(Cl)cc1C` [1-(n-Heptyl)-1-[4-(isopropyl)benzyl]-3-(4-chloro-2-methylphenyl)urea] returned an IC50 in assay [1] (rat adrenal ACAT) of 1740 nM. Further, the response vs control in vivo at 0.01 % in assay [2] (setting [3]) was 75%; in assay [2] (setting [4]) it was 60%.

The compound `CCCCCCCN(Cc1ccc(CCCC)cc1)C(=O)Nc1cc(C)c(Cl)cc1C` [1-(n-Heptyl)-1-[4-(n-butyl)benzyl]-3-(4-chloro-2,5-dimethylphenyl)urea] returned an inhibition at 5.2 µg/mL in assay [1] of 90%. Also, the response vs control in vivo at 0.03 % in assay [2] (setting [3]) is 19%; in assay [2] (setting [4]) it was 48%.

For `CCCCCCCN(Cc1ccc(CCCC)cc1)C(=O)Nc1c(C)cc(Cl)cc1C` [1-(n-Heptyl)-1-[4-(n-butyl)benzyl]-3-(4-chloro-2,6-dimethylphenyl)urea], 5.2 µg/mL produced 90% inhibition in assay [1]. Besides, the figures for the response vs control in vivo at 0.03 % in assay [2] (setting [3]) and in assay [2] (setting [4]) were 11% and 31%, respectively.

As for `CCCCCCCN(Cc1ccc(OCCCC)cc1)C(=O)Nc1ccc(Cl)cc1Cl` [1-(n-Heptyl)-(4-n-butoxybenzyl)-3-(2,4-dichlorophenyl)urea], the inhibition at 5.2 µg/mL in assay [1] (setting [5]) amounted to 79.9%. In addition, the figures for the response vs control in vivo at 0.03 % in assay [2] (setting [3]) and in assay [2] (setting [4]) were 50% and 68%, respectively.

Turning to `CCCCCCCN(Cc1ccc(OCCCC)cc1)C(=O)Nc1ccc(Cl)cc1C(F)(F)F` [1-(n-Heptyl)-(4-n-butoxybenzyl)-3-(2-trifluoromethyl-4-chlorophenyl)urea], the inhibition at 5.2 µg/mL in assay [1] (setting [5]) was 89.4%. The response vs control in vivo at 0.03 % in assay [2] (setting [3]) stood at 35%; in assay [2] (setting [4]) it was 59%.

Consider `Cc1ccc(NC(=O)N(Cc2ccccc2)C(Cc2ccccc2)c2ccccc2)c(C)c1` (stereo not drawn) [1-Benzyl-1-(1,2-diphenylethyl)-3-(2,4-dimethylphenyl)urea], for which, in assay [1] (setting [5]), the inhibition at 5.2 µg/mL turned out to be 95%. For the same compound, the response vs control in vivo at 0.03 % in assay [2] (setting [3]) is 63%; in assay [2] (setting [4]), 52%.

Turning to `CCCCOc1ccc(CN(Cc2ccccc2)C(=O)Nc2cc(C)c(C)cc2C)cc1` [1-Benzyl-1-(4-butyloxybenzyl)-3-(2,4,5-trimethylphenyl)urea], the inhibition at 5.2 µg/mL in assay [1] (setting [5]) was found to be 95.8%. Also, the figures for the response vs control in vivo at 0.03 % in assay [2] (setting [3]) and in assay [2] (setting [4]) were 12% and 43%, respectively.

As to `CCCCOc1ccc(CN(Cc2ccccc2)C(=O)Nc2ccc(C)cc2C)cc1` [1-Benzyl-1-(4-butyloxybenzyl)-3-(2,4-dimethylphenyl)urea], in assay [1] (setting [5]), the inhibition at 5.2 µg/mL stood at 91.7%. Further, the response vs control in vivo at 0.03 % turned out to be 15% in assay [2] (setting [3]) and 48% in assay [2] (setting [4]).

Turning to `CCCCOc1ccc(CN(Cc2ccccc2)C(=O)Nc2c(Cl)cc(Cl)cc2Cl)cc1` [1-Benzyl-1-(4-n-butoxybenzyl)-3-(2,4,6-trichlorophenyl)urea], in assay [1] (setting [5]), the inhibition at 5.2 µg/mL worked out at 95.2%. Besides, the response vs control in vivo at 0.03 % is 8% in assay [2] (setting [3]) and 40% in assay [2] (setting [4]).
